Reference: patent US12077503B2, “Substituted cyclic amides and their use as herbicides” (FMC CORPORATION, priority 2015, dated 2024)

Assays:
Format in all cases: in vivo
[1] = tested on: barnyardgrass (Echinochloa crus-galli); assay: Test G Post-Emergence Protocol; settings: Echinochloa crus-galli, post-emergence, 312 h, read-out: Barnyardgrass damage rating; for pest or weed control at 15.625 g/ha: 15.625 g ai/ha, evaluated after 13 days (100=total damage to plant; 0=no damage to plant); for pest or weed control at 62.5 g/ha: 62.5 g ai/ha; for pest or weed control at 62.5 g/ha / pest or weed control at 250 g/ha: evaluated after 13 days, 100=total damage to plant, 0=no damage to plant; for pest or weed control at 250 g/ha: 250 g ai/ha
Procedure, shortened: (§1)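 Damage was rated 13 days after treatment from 0 (none) to 100 (plant killed). Compound was applied as a spray at 15.625, 62.5 or 250 g/ha in 50:50 acetone/water containing 0.5% Tween 20, onto 8-day-old potted plants kept in a glasshouse (24/16 °C, 14 h light, 65% humidity).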

[2] = tested on: ivy-leaved morning glory (Ipomoea hederacea); assay: Test G Post-Emergence Protocol; settings: Ipomoea, post-emergence, 312 h, read-out: Morningglory, Ivy-leaved damage rating; for pest or weed control at 15.625 g/ha: 15.625 g ai/ha, evaluated after 13 days (100=total damage to plant; 0=no damage to plant); for pest or weed control at 62.5 g/ha: 62.5 g ai/ha; for pest or weed control at 62.5 g/ha / pest or weed control at 250 g/ha: evaluated after 13 days, 100=total damage to plant, 0=no damage to plant; for pest or weed control at 250 g/ha: 250 g ai/ha
Procedure, shortened: as §1

[3] = tested on: velvetleaf (Abutilon theophrasti); assay: Test G Post-Emergence Protocol; settings: Abutilon theophrasti, post-emergence, 312 h, read-out: Velvetleaf damage rating; for pest or weed control at 15.625 g/ha: 15.625 g ai/ha, evaluated after 13 days (100=total damage to plant; 0=no damage to plant); for pest or weed control at 62.5 g/ha: 62.5 g ai/ha; for pest or weed control at 62.5 g/ha / pest or weed control at 250 g/ha: evaluated after 13 days, 100=total damage to plant, 0=no damage to plant; for pest or weed control at 250 g/ha: 250 g ai/ha
Procedure, shortened: as §1

[4] = tested on: redroot pigweed (Amaranthus retroflexus); assay: Test G Post-Emergence Protocol; settings: Amaranthus retroflexus, post-emergence, 312 h, read-out: Pigweed, Redroot damage rating; for pest or weed control at 15.625 g/ha: 15.625 g ai/ha, evaluated after 13 days (100=total damage to plant; 0=no damage to plant); for pest or weed control at 62.5 g/ha: 62.5 g ai/ha; for pest or weed control at 62.5 g/ha / pest or weed control at 250 g/ha: evaluated after 13 days, 100=total damage to plant, 0=no damage to plant; for pest or weed control at 250 g/ha: 250 g ai/ha
Procedure, shortened: as §1

corn (Zea mays) [5] = assay: Test G Post-Emergence Protocol; settings: Zea mays, post-emergence, 312 h, read-out: Corn damage rating; for plant injury at 15.625 g/ha: 15.625 g ai/ha, evaluated after 13 days (100=total damage to plant; 0=no damage to plant); for plant injury at 62.5 g/ha: 62.5 g ai/ha; for plant injury at 62.5 g/ha / plant injury at 250 g/ha: evaluated after 13 days, 100=total damage to plant, 0=no damage to plant; for plant injury at 250 g/ha: 250 g ai/ha
Procedure, shortened: as §1

[6] = tested on: giant foxtail (Setaria faberi); assay: Test G Post-Emergence Protocol; settings: Setaria faberi, post-emergence, 312 h, read-out: Foxtail, Giant damage rating; for pest or weed control at 15.625 g/ha: 15.625 g ai/ha, evaluated after 13 days (100=total damage to plant; 0=no damage to plant); for pest or weed control at 62.5 g/ha: 62.5 g ai/ha; for pest or weed control at 62.5 g/ha / pest or weed control at 250 g/ha: evaluated after 13 days, 100=total damage to plant, 0=no damage to plant; for pest or weed control at 250 g/ha: 250 g ai/ha
Procedure, shortened: as §1

[7] = tested on: barnyardgrass (Echinochloa crus-galli); assay: Test G Pre-Emergence Protocol; settings: Echinochloa crus-galli, pre-emergence, 312 h, evaluated after 13 days; for pest or weed control at 15.625 g/ha: 15.625 g ai/ha; for pest or weed control at 15.625 g/ha / pest or weed control at 250 g/ha: read-out: Barnyardgrass damage rating (100=total damage to plant; 0=no damage to plant); for pest or weed control at 62.5 g/ha: 62.5 g ai/ha, 100=total damage to plant, 0=no damage to plant, read-out: Barnyardgrass damage rating; for pest or weed control at 250 g/ha: 250 g ai/ha
Procedure, shortened: (§2)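 Visual injury (0–100) at day 13 after a single pre-emergence spray. Rates: 15.625, 62.5, 250 g/ha in acetone–water 50:50 with 0.5% Tween 20. Growth conditions: 24/16° C, 14 h light, 65% humidity.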

[8] = tested on: ivy-leaved morning glory (Ipomoea hederacea); assay: Test G Pre-Emergence Protocol; settings: Ipomoea, pre-emergence, 312 h, evaluated after 13 days; for pest or weed control at 15.625 g/ha: 15.625 g ai/ha; for pest or weed control at 15.625 g/ha / pest or weed control at 250 g/ha: read-out: Morningglory, Ivy-leaved damage rating (100=total damage to plant; 0=no damage to plant); for pest or weed control at 62.5 g/ha: 62.5 g ai/ha, 100=total damage to plant, 0=no damage to plant, read-out: Morningglory, Ivy-leaved damage rating; for pest or weed control at 250 g/ha: 250 g ai/ha
Procedure, shortened: as §2

[9] = tested on: velvetleaf (Abutilon theophrasti); assay: Test G Pre-Emergence Protocol; settings: Abutilon theophrasti, pre-emergence, 312 h, evaluated after 13 days; for pest or weed control at 15.625 g/ha: 15.625 g ai/ha; for pest or weed control at 15.625 g/ha / pest or weed control at 250 g/ha: read-out: Velvetleaf damage rating (100=total damage to plant; 0=no damage to plant); for pest or weed control at 62.5 g/ha: 62.5 g ai/ha, 100=total damage to plant, 0=no damage to plant, read-out: Velvetleaf damage rating; for pest or weed control at 250 g/ha: 250 g ai/ha
Procedure, shortened: as §2

[10] = tested on: redroot pigweed (Amaranthus retroflexus); assay: Test G Pre-Emergence Protocol; settings: Amaranthus retroflexus, pre-emergence, 312 h, evaluated after 13 days; for pest or weed control at 15.625 g/ha: 15.625 g ai/ha; for pest or weed control at 15.625 g/ha / pest or weed control at 250 g/ha: read-out: Pigweed, Redroot damage rating (100=total damage to plant; 0=no damage to plant); for pest or weed control at 62.5 g/ha: 62.5 g ai/ha, 100=total damage to plant, 0=no damage to plant, read-out: Pigweed, Redroot damage rating; for pest or weed control at 250 g/ha: 250 g ai/ha
Procedure, shortened: as §2

corn (Zea mays) [11] = assay: Test G Pre-Emergence Protocol; settings: Zea mays, pre-emergence, 312 h, evaluated after 13 days; for plant injury at 15.625 g/ha: 15.625 g ai/ha; for plant injury at 15.625 g/ha / plant injury at 250 g/ha: read-out: Corn damage rating (100=total damage to plant; 0=no damage to plant); for plant injury at 62.5 g/ha: 62.5 g ai/ha, 100=total damage to plant, 0=no damage to plant, read-out: Corn damage rating; for plant injury at 250 g/ha: 250 g ai/ha
Procedure, shortened: as §2

[12] = tested on: giant foxtail (Setaria faberi); assay: Test G Pre-Emergence Protocol; settings: Setaria faberi, pre-emergence, 312 h, evaluated after 13 days; for pest or weed control at 15.625 g/ha: 15.625 g ai/ha; for pest or weed control at 15.625 g/ha / pest or weed control at 250 g/ha: read-out: Foxtail, Giant damage rating (100=total damage to plant; 0=no damage to plant); for pest or weed control at 62.5 g/ha: 62.5 g ai/ha, 100=total damage to plant, 0=no damage to plant, read-out: Foxtail, Giant damage rating; for pest or weed control at 250 g/ha: 250 g ai/ha
Procedure, shortened: as §2

Row | SMILES | pest or weed control at 15.625 g/ha [1] [%] | pest or weed control at 62.5 g/ha [1] [%] | pest or weed control at 250 g/ha [1] [%] | pest or weed control at 15.625 g/ha [2] [%] | pest or weed control at 62.5 g/ha [2] [%] | pest or weed control at 250 g/ha [2] [%] | pest or weed control at 15.625 g/ha [3] [%] | pest or weed control at 62.5 g/ha [3] [%] | pest or weed control at 250 g/ha [3] [%] | pest or weed control at 15.625 g/ha [4] [%] | pest or weed control at 62.5 g/ha [4] [%] | pest or weed control at 250 g/ha [4] [%] | plant injury at 15.625 g/ha (corn (Zea mays) [5]) [%] | plant injury at 62.5 g/ha (corn (Zea mays) [5]) [%] | plant injury at 250 g/ha (corn (Zea mays) [5]) [%] | pest or weed control at 15.625 g/ha [6] [%] | pest or weed control at 62.5 g/ha [6] [%] | pest or weed control at 15.625 g/ha [7] [%] | pest or weed control at 62.5 g/ha [7] [%] | pest or weed control at 250 g/ha [7] [%] | further results
1 | CN1C[C@@H](c2ccc(C(F)(F)F)cc2)[C@H](C(=O)Nc2cscn2)C1=O (racemic) [Compound 1659] | 0 | 0 | 20 | 0 | 0 | 0 | 0 | 0 | 0 | 0 | 0 | 20 | 0 | 0 | 10 | 0 | 0 | 0 | 0 | 0 | pest or weed control at 250 g/ha [6]: 40%; pest or weed control at 15.625 g/ha [8]: 0%; pest or weed control at 62.5 g/ha [8]: 0%; pest or weed control at 250 g/ha [8]: 0%; pest or weed control at 15.625 g/ha [9]: 0%; pest or weed control at 62.5 g/ha [9]: 0%; pest or weed control at 250 g/ha [9]: 0%; pest or weed control at 15.625 g/ha [10]: 0%; pest or weed control at 62.5 g/ha [10]: 0%; pest or weed control at 250 g/ha [10]: 0%; plant injury at 15.625 g/ha (corn (Zea mays) [11]): 0%; plant injury at 62.5 g/ha (corn (Zea mays) [11]): 0%; plant injury at 250 g/ha (corn (Zea mays) [11]): 0%; pest or weed control at 15.625 g/ha [12]: 0%; pest or weed control at 62.5 g/ha [12]: 0%; pest or weed control at 250 g/ha [12]: 0%
2 | CN1C[C@H](c2ccc(C(F)F)cc2)[C@@H](C(=O)Nc2cnccc2C(F)(F)F)C1=O (racemic) [Compound 1743] | 0 | 0 | 80 | 0 | 0 | 30 | 0 | 0 | 50 | 0 | 0 | 50 | 0 | 0 | 60 | 20 | 70 | 30 | 40 | 80 | pest or weed control at 15.625 g/ha [8]: 0%; pest or weed control at 62.5 g/ha [8]: 60%; pest or weed control at 250 g/ha [8]: 70%; pest or weed control at 15.625 g/ha [9]: 10%; pest or weed control at 62.5 g/ha [9]: 50%; pest or weed control at 250 g/ha [9]: 80%; pest or weed control at 15.625 g/ha [10]: 20%; pest or weed control at 62.5 g/ha [10]: 60%; pest or weed control at 250 g/ha [10]: 80%; plant injury at 15.625 g/ha (corn (Zea mays) [11]): 30%; plant injury at 62.5 g/ha (corn (Zea mays) [11]): 20%; plant injury at 250 g/ha (corn (Zea mays) [11]): 80%; pest or weed control at 15.625 g/ha [12]: 30%; pest or weed control at 62.5 g/ha [12]: 90%; pest or weed control at 250 g/ha [12]: 90%
3 | CC(C)Oc1cc(OC(F)(F)F)cc(C2CN(C)C(=O)C2C(=O)Nc2cccc(F)c2F)c1 (centres unmarked) [Compound 1726] | 0 | 30 | 70 | 10 | 10 | 70 | 0 | 0 | 20 | 20 | 0 | 40 | 10 | 30 | 70 | 0 | 70 | 0 | 50 | 70 | pest or weed control at 250 g/ha [6]: 70%; pest or weed control at 15.625 g/ha [8]: 0%; pest or weed control at 62.5 g/ha [8]: 0%; pest or weed control at 250 g/ha [8]: 0%; pest or weed control at 15.625 g/ha [9]: 0%; pest or weed control at 62.5 g/ha [9]: 0%; pest or weed control at 250 g/ha [9]: 0%; pest or weed control at 15.625 g/ha [10]: 0%; pest or weed control at 62.5 g/ha [10]: 0%; pest or weed control at 250 g/ha [10]: 10%; plant injury at 15.625 g/ha (corn (Zea mays) [11]): 0%; plant injury at 62.5 g/ha (corn (Zea mays) [11]): 0%; plant injury at 250 g/ha (corn (Zea mays) [11]): 30%; pest or weed control at 15.625 g/ha [12]: 10%; pest or weed control at 62.5 g/ha [12]: 50%; pest or weed control at 250 g/ha [12]: 80%
